Assay results published in article PMC8119466, “A screen of FDA-approved drugs identifies inhibitors of protein tyrosine phosphatase 4A3 (PTP4A3 or PRL-3)” (Scientific Reports, 2021).
Counter-ions that a name gives are not always drawn.

Experiments:
recombinant PRL-2 = biological target: T1, recombinant PRL-2 (Homo sapiens, UniProt Q12974); test: In vitro phosphatase assay (DiFMUP hydrolysis), PRL-2; format: biochemical; conditions: for % Phosphatase Activity (compared to DMSO) PRL-2: FDA-approved drug screen;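 for all read-outs here: PRL-2 activity read as DiFMUP hydrolysis after 20 min at room temperature with drug, enzyme first pre-reduced at 4 °C for 20 min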
T1 construct: 6xHis (N, cleaved yes); made in house; host or cells: E. coli One Shot BL21 Star
T1 sequence (Q12974 1-167): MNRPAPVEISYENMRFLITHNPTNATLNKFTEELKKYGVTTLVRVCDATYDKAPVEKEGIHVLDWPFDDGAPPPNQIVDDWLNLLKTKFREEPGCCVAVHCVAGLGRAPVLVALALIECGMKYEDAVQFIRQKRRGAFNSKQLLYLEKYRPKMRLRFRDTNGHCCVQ

recombinant PRL-3 = biological target: T2, recombinant PRL-3 (Homo sapiens, UniProt O75365); test: In vitro phosphatase assay (DiFMUP hydrolysis), PRL-3; format: biochemical; conditions: for % Phosphatase Activity (compared to DMSO) PRL-3: FDA-approved drug screen
T2 construct: 6xHis (N, cleaved yes); made in house; host or cells: E. coli One Shot BL21 Star
T2 sequence (O75365 whole entry): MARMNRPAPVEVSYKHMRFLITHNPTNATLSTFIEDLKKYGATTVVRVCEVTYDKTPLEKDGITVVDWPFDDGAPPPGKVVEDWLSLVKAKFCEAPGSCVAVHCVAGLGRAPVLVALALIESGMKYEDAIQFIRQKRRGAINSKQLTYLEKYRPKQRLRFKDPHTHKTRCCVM

Row | Compound | selectivity in inhibiting PRL-2 over other PRLs (recombinant PRL-2; drug 40 µM) | % Phosphatase Activity (compared to DMSO) PRL-2 (recombinant PRL-2) [%] | % Phosphatase Activity (compared to DMSO) PRL-3 (recombinant PRL-3) [%] | effect on PRL phosphatase activity (DiFMUP hydrolysis), in words (recombinant PRL-3; PRL-1, PRL-2, PRL-3 for research-grade inhibitors, PRL-3 for Dexamethasone)
1 | CC1(C)CCC(CN2CCN(c3ccc(C(=O)NS(=O)(=O)c4ccc(NCC5CCOCC5)c([N+](=O)[O-])c4)c(Oc4cnc5[nH]ccc5c4)c3)CC2)=C(c2ccc(Cl)cc2)C1 [ABT-199, reference compound] | demonstrated selectivity in inhibiting PRL-2 |  |  | 
2 | CCN(CC)CCOC(=O)C(c1ccccc1)c1ccccc1 [Adiphenine HCl] |  | 101 | 82 | 
3 | CN(C)C/C=C/C(=O)Nc1cc2c(Nc3ccc(F)c(Cl)c3)ncnc2cc1O[C@H]1CCOC1 [Afatinib (BIBW2992)] |  | 106 | 85 | 
4 | CC1(C)S[C@@H]2[C@H](NC(=O)[C@H](N)c3ccc(O)cc3)C(=O)N2[C@H]1C(=O)O [Amoxicillin] |  | 150 | 106 | 
5 | Cc1c(-c2ccc(O)cc2)n(Cc2ccc(OCCN3CCCCCC3)cc2)c2ccc(O)cc12 [Bazedoxifene Acetate] |  | 106 |  | 
6 | CCC1(C)CC(=O)NC(=O)C1 [Bemegride] |  | 97 | 81 | 
7 | O=C(O)c1ccccc1 [Benzoic Acid] |  | 101 | 76 | 
8 | O=C(O)CCCN1CCC(O[C@@H](c2ccc(Cl)cc2)c2ccccn2)CC1.O=S(=O)(O)c1ccccc1 [Bepotastine Besilate] |  | 113 | 98 | 
9 | COc1cc2c(cc1OC)[C@@]13CCN4CC5=CCO[C@H]6CC(=O)N2[C@H]1[C@H]6[C@H]5C[C@H]43 [Brucine] |  | 86 | 83 | 
10 | COc1cc(OC)c(C(=O)CCCN2CCCC2)c(OC)c1.Cl [Buflomedil HCl] |  | 118 | 87 | 
11 | COc1cc2nccc(Oc3ccc(NC(=O)C4(C(=O)Nc5ccc(F)cc5)CC4)cc3)c2cc1OC [Cabozantinib (XL184, BMS-907351)] |  | 96 | 75 | 
12 | COc1cc2nccc(Oc3ccc(NC(=O)C4(C(=O)Nc5ccc(F)cc5)CC4)cc3)c2cc1OC.O=C(O)C[C@H](O)C(=O)O [Cabozantinib malate (XL184)] |  | 115 | 96 | 
13 | Cc1ccc([C@@H]2O[C@H](CO)[C@@H](O)[C@H](O)[C@H]2O)cc1Cc1ccc(-c2ccc(F)cc2)s1 [Canagliflozin] |  | 106 | 90 | 
14 | CC1(C)S[C@@H]2[C@H](NC(=O)C(C(=O)O)c3ccccc3)C(=O)N2[C@H]1C(=O)O (some centres unmarked) [Carbenicillin disodium] |  | 101 | 87 | 
15 | CN(C)CCC(c1ccc(Cl)cc1)c1ccccn1 (centres unmarked) [Chlorpheniramine Maleate] |  | 103 | 104 | 
16 | CN(C)CCCN1c2ccccc2Sc2ccc(Cl)cc21 [Chlorpromazine HCl] |  | 109 | 81 | 
17 | Cc1cc(C2CCCCC2)n(O)c(=O)c1 [Ciclopirox] |  | 111 | 76 | 
18 | COc1ccc([C@]2(C#N)CC[C@@H](C(=O)O)CC2)cc1OC1CCCC1 [Cilomilast] |  | 99 | 88 | 
19 | C[C@@H](NCCCc1cccc(C(F)(F)F)c1)c1cccc2ccccc12 [Cinacalcet HCl] |  | 114 | 81 | 
20 | CC[C@H]1OC(=O)[C@H](C)[C@@H](O[C@H]2C[C@@](C)(OC)[C@@H](O)[C@H](C)O2)[C@H](C)[C@@H](O[C@@H]2O[C@H](C)C[C@H](N(C)C)[C@H]2O)[C@](C)(OC)C[C@@H](C)C(=O)[C@H](C)[C@@H](O)[C@]1(C)O [Clarithromycin] |  | 111 | 86 | 
21 | Clc1ccccc1C(c1ccccc1)(c1ccccc1)n1ccnc1 [Clotrimazole] |  | 108 | 88 | 
22 | C[C@@H](Oc1cc(-c2cnn(C3CCNCC3)c2)cnc1N)c1c(Cl)ccc(F)c1Cl [Crizotinib (PF-02341066)] |  | 119 | 81 | 
23 | CN1CCC(=C2c3ccccc3C=Cc3ccccc32)CC1 [Cyproheptadine HCl] |  | 112 | 93 | 

Row | Compound | selectivity in inhibiting PRL-2 over other PRLs (recombinant PRL-2; drug 40 µM) | % Phosphatase Activity (compared to DMSO) PRL-2 (recombinant PRL-2) [%] | % Phosphatase Activity (compared to DMSO) PRL-3 (recombinant PRL-3) [%] | effect on PRL phosphatase activity (DiFMUP hydrolysis), in words (recombinant PRL-3; PRL-1, PRL-2, PRL-3 for research-grade inhibitors, PRL-3 for Dexamethasone)
24 | N[C@@H]1CON=C1O [D-Cycloserine] |  | 101 | 95 | 
25 | C[N+](C)(C)CCCCCCCCCC[N+](C)(C)C [Decamethonium Bromide] |  | 118 | 71 | 
26 | C[C@@H]1C[C@H]2[C@@H]3CCC4=CC(=O)C=C[C@]4(C)[C@@]3(F)[C@@H](O)C[C@]2(C)[C@@]1(O)C(=O)CO [Dexamethasone, reference compound] |  |  |  | no effect on PRL-3 phosphatase activity
27 | C[N+]1(C)CCC(=C(c2ccccc2)c2ccccc2)CC1 [Diphemanil Methylsulfate] |  | 124 | 91 | 
28 | CN(CCOc1ccc(NS(C)(=O)=O)cc1)CCc1ccc(NS(C)(=O)=O)cc1 [Dofetilide] |  | 88 | 82 | 
29 | CCN[C@H]1C[C@H](C)S(=O)(=O)c2sc(S(N)(=O)=O)cc21 [Dorzolamide HCl] |  | 81 | 87 | 
30 | CCn1cc(C(=O)O)c(=O)c2cc(F)c(N3CCNCC3)nc21 [Enoxacin] |  | 95 | 98 | 
31 | O=S(=O)([O-])CCCS(=O)(=O)[O-].[Na+].[Na+] [Eprodisate (disodium)] |  | 126 | 112 | 
32 | OC(Cn1cncn1)(Cn1cncn1)c1ccc(F)cc1F [Fluconazole] |  | 97 | 76 | 
33 | O=c1[nH]cc(F)c(=O)[nH]1 [Fluorouracil (5-Fluoracil, 5-FU)] |  | 109 | 75 | 
34 | N[C@@H](CSCCCO)C(=O)O [Fudosteine] |  | 75 | 92 | 
35 | Br.COc1ccc2c3c1O[C@H]1C[C@@H](O)C=C[C@@]31CCN(C)C2 [Galanthamine HBr] |  | 85 | 93 | 
36 | CC1(C)O[C@@H]2C[C@H]3[C@@H]4CCC5=CC(=O)CC[C@]5(C)[C@@]4(F)[C@@H](O)C[C@]3(C)[C@]2(C(=O)CCl)O1 [Halcinonide] |  | 105 | 93 | 
37 | Cl.Cl.OCCOCCN1CCN(C(c2ccccc2)c2ccc(Cl)cc2)CC1 (centres unmarked) [Hydroxyzine 2HCl] |  | 103 | 85 | 
38 | COC1=C(OC)C(=O)C(CCCCCCCCCCO)=C(C)C1=O [Idebenone] |  | 150 | 101 | 
39 | CCC(C)n1ncn(-c2ccc(N3CCN(c4ccc(OCC5COC(Cn6cncn6)(c6ccc(Cl)cc6Cl)O5)cc4)CC3)cc2)c1=O (centres unmarked) [Itraconazole] |  | 93 | 74 | 
40 | CC[C@@H](C(N)=O)N1CCCC1=O [Levetiracetam] |  | 90 | 71 | 
41 | CCN(CC)CC(=O)Nc1c(C)cccc1C [Lidocaine] |  | 91 | 63 | 
42 | COC(=O)C1=C(C)NC(C)=C(C(=O)OCCN2CCN(C(c3ccccc3)c3ccccc3)CC2)C1c1cccc([N+](=O)[O-])c1 (centres unmarked) [Manidipine] |  | 93 | 77 | 
43 | C#C[C@]1(O)CC[C@H]2[C@@H]3CCc4cc(OC)ccc4[C@H]3CC[C@@]21C [Mestranol] |  | 99 | 77 | 
44 | O=C(NCCN1CCOCC1)c1ccc(Cl)cc1 [Moclobemide (Ro 111163)] |  | 109 | 83 | 
45 | Aprotinin |  | 90 |  | 
